For one assay, the target named is PDK1 (Homo sapiens (Human), UniProt O15530). Put plainly: PDK1 kinase assay (coupled PDK1/AKT/FAM-crosstide assay, IMAP fluorescence polarization). In kind it is biochemical. A digest of the protocol:
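GST-tagged PDK1 (aa 51-359, 0.75 nM) was coupled to unphosphorylated GST-AKT2 140-467-PIFtide (10 nM) and 100 nM FAM-crosstide at 40 μM ATP, in Tris pH 7.2 buffer, for 30 min at 25 °C. Crosstide phosphorylation was read by IMAP fluorescence polarization (ΔmP) and fitted with a 4-parameter curve.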
In general terms: In fluorescence polarisation assays a small probe gives low polarisation when free and higher when bound to something large.

Assay [1] deals with phospho-akt (Thr308) in PC-3 cells. Put plainly: Inhibition of phospho-akt (Thr308) in PC-3 cells, MSD phospho-akt 308 ELISA kit. It is filed as cell-based. The settings on record: Homo sapiens, 2 hours, no serum, read-out: EC50. A digest of the protocol:
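PC-3 cells were seeded overnight in growth medium with 10% FBS, then exposed to compound serially diluted threefold in serum-free medium for 2 hours. Lysates were captured overnight at 4 degrees on MSD plates and phospho-Akt Thr308 was detected electrochemiluminescently, against DMSO high and 5 μM wortmannin low controls.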

Where [2] appears, read: inhibition of P308 Akt in PC-3 cells using MSD.
Setting [3] is: inhibition of phospo-PDK1 in vitro.
[4] abbreviates: inhibition of P308 Akt in PC-3 cells, MSD.

Structures can show the parent of a compound that is named as a salt. Where two headings read alike, the source gives them in different places. Bounds are passed on as bounds.

Chain of PDK1 (O15530 51-359): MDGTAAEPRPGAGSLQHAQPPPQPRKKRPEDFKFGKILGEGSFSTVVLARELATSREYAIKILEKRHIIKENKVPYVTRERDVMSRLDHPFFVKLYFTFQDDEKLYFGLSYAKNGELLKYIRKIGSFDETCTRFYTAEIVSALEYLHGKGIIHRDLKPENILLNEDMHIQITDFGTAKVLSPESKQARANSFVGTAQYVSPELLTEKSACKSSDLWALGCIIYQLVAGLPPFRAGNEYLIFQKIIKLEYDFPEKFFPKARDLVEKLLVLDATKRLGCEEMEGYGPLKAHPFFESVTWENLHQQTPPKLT

As to `Nc1cccc(-c2nc(-c3ccc(CNc4ncc(C(F)(F)F)cc4C(=O)Nc4ccc(F)cc4)cc3)cnc2N)c1` [Example 239, 2-{4-[5-Amino-6-(3-amino-phenyl)-pyrazin-2-yl]-benzylamino}-N-(4-fluoro-phenyl)-5-trifluoromethyl-nicotinamide], the IC50 (usually the concentration that gives 50% inhibition) against PDK1 (inhibition of PDK1 in vitro) is under 100 nM. In addition, in assay [1] (setting [2]), the EC50 – broadly, the concentration that produces a half-maximal response – is 1000 to 10000 nM.

On to `C[C@H](NC(=O)c1nc(C#N)cnc1NCc1ccc(-c2cnc3[nH]nc(N(C)C)c3c2)cc1)c1ccc(F)c(F)c1` [Example 62, (S)-6-cyano-N-(1-(3,4-difluorophenyl)ethyl)-3-(4-(3-(dimethylamino)-1H-pyrazolo[3,4-b]pyridin-5-yl)benzylamino)pyrazine-2-carboxamide], for which the IC50 against PDK1 (inhibition of PDK1 in vitro) was under 100 nM. Moreover, the EC50 in assay [1] (setting [2]) was under 1000 nM.

For the compound `CC(C)c1cnc(NCc2ccc(-c3ccc4ncnc(N)c4c3)s2)c(C(=O)NCc2ccc(F)c(F)c2)n1` [Ex. 10.4, 3-({[5-(4-aminoquinazolin-6-yl)thiophen-2-yl]methyl}amino)-N-(3,4-difluorobenzyl)-6-(propan-2-yl)pyrazine-2-carboxamide], the 50% inhibitory concentration (IC50) against PDK1 (setting [3]) was in the range of 100 to 1000 nM. In assay [1] (setting [4]), the EC50 was over 10000 nM.

Turning to `COc1cnc(NCc2ccc(-c3ccc4ncnc(N)c4c3)s2)c(C(=O)NCc2ccc(F)c(F)c2)c1` [Example 8.1.2, 2-({[5-(4-aminoquinazolin-6-yl)thiophen-2-yl]methyl}amino)-N-(3,4-difluorobenzyl)-5-methoxypyridine-3-carboxamide], the IC50 on PDK1 (setting [3]) is under 100 nM. In assay [1] (setting [4]), the EC50 was under 1000 nM.

The compound `Nc1ncnc2ccc(-c3ccc(CNc4ncccc4C(=O)NCc4ccccc4)s3)cc12` [Example 3.56, 2-({[5-(4-aminoquinazolin-6-yl)thiophen-2-yl]methyl}amino)-N-benzylpyridine-3-carboxamide (TFA salt)] yielded an IC50 on PDK1 (setting [3]) of 100 to 1000 nM. Besides, the EC50 in assay [1] (setting [4]) is 1000 to 10000 nM.

In turn, `Nc1n[nH]c2ncc(-c3ccc(CNc4ncc(C(F)(F)F)cc4C(=O)NC[C@@H]4CCCO4)cc3)cc12` [Example 309, (S)-2-(4-(3-amino-1H-pyrazolo [3,4-b]pyridin-5-yl)benzylamino)-N-((tetrahydrofuran-2-yl)methyl)-5-(trifluoromethyl) nicotinamide] registered an IC50 on PDK1 (inhibition of PDK1 in vitro) of 100 to 1000 nM. The EC50 in assay [1] (PC-3, 2 h, inhibition of P308 Akt in PC-3 cells using MSD) lay within 1000 to 10000 nM.

The compound `C[C@H](NC(=O)c1cc(C#N)cnc1NCc1ccc(-c2ccnc(C#N)c2)cc1)c1ccc(F)cc1` [Example 108, (S)-5-cyano-2-(4-(2-cyanopyridin-4-yl)benzylamino)-N-(1-(4-fluorophenyl)ethyl)nicotinamide] came in with an IC50 on PDK1 (inhibition of PDK1 in vitro) of over 5000 nM. The EC50 in assay [1] (setting [2]) was over 10000 nM.

Regarding `NC(=O)c1cnc(NCc2ccc(-c3ccc4ncnc(N)c4c3)s2)c(C(=O)NCc2ccc(F)c(F)c2)c1` [Ex. 7.24.1, 2-({[5-(4-aminoquinazolin-6-yl)thiophen-2-yl]methyl}amino)-N˜3˜-(3,4-difluorobenzyl)pyridine-3,5-dicarboxamide], at PDK1 (setting [3]), the IC50 was under 100 nM. Further, in assay [1] (setting [4]), the EC50 was under 1000 nM.

Turning to `Nc1ncnc2ccc(-c3ccc(CNc4ncc(S(=O)(=O)N5CCCCC5)cc4C(=O)NCc4ccc(F)c(F)c4)s3)cc12` [Example 8.6.8, 2-(((5-(4-aminoquinazolin-6-yl)thiophen-2-yl)methyl)amino)-N-(3,4-difluorobenzyl)-5-(piperidin-1-ylsulfonyl) nicotinamide], on PDK1 (setting [3]), the IC50 was 100 to 1000 nM. In assay [1] (setting [4]), the 50% effective concentration (EC50) is over 10000 nM.

With `CCC(C)NS(=O)(=O)c1cnc(NCc2ccc(-c3ccc4ncnc(N)c4c3)s2)c(C(=O)NCc2ccc(F)c(F)c2)c1` (stereo not drawn) [Example 8.7.10, 2-({[5-(4-aminoquinazolin-6-yl)thiophen-2-yl]methyl}amino)-5-(butan-2-ylsulfamoyl)-N-(3,4-difluorobenzyl)pyridine-3-carboxamide], the IC50 against PDK1 (setting [3]) lay within 100 to 1000 nM. The EC50 in assay [1] (setting [4]) lay in the range of 1000 to 10000 nM.

As to `O=C1Nc2cc(OCCNc3ncccc3C(=O)NCc3ccc(F)cc3)ccc2/C1=C/c1cnc[nH]1` [Example 23, (Z)-2-(2-(3-((1H-imidazol-5-yl)methylene)-2-oxoindolin-6-yloxy)ethylamino)-N-(4-fluorobenzyl)nicotinamide], the IC50 against PDK1 (setting [3]) was under 100 nM. Besides, the EC50 in assay [1] (setting [4]) is under 1000 nM.

Turning to `Nc1ncc(-c2ccc(CNc3ncc(C(F)(F)F)cc3C(=O)Nc3ccc(F)cc3)cc2)nc1CCC1CCNC1` (stereo not drawn) [Example 76, 2-{4-[5-Amino-6-(2-pyrrolidin-3-yl-ethyl)-pyrazin-2-yl]-benzylamino}-N-(4-fluoro-phenyl)-5-trifluoromethyl-nicotinamide], at PDK1 (inhibition of PDK1 in vitro), the IC50 is under 100 nM. Moreover, the EC50 in assay [1] (setting [2]) was under 1000 nM.

`C[C@H](NC(=O)c1cc(C#N)cnc1NCc1ccc(-c2cnc(N)c(NCCN)n2)cc1)c1ccc(F)cc1` [Example 199, 2-{4-[5-Amino-6-(2-amino-ethylamino)-pyrazin-2-yl]-benzylamino}-5-cyano-N-[(S)-1-(4-fluoro-phenyl)-ethyl]-nicotinamide] gave an IC50 against PDK1 (inhibition of PDK1 in vitro) of under 100 nM. In addition, in assay [1] (setting [2]), the EC50 is under 1000 nM.

Turning to `O=C1Nc2cc(/C=C/CNc3ncccc3C(=O)NCc3ccc(F)c(F)c3)ccc2/C1=C/c1ncc[nH]1` [Example 15.12, N-(3,4-Difluoro-benzyl)-2-((E)-3-{3-[1-(1H-imidazol-2-yl)-meth-(Z)-ylidene]-2-oxo-2,3-dihydro-1H-indol-6-yl}-allylamino)-nicotinamide], the IC50 against PDK1 (setting [3]) is under 100 nM. In assay [1] (setting [4]), the EC50 was 1000 to 10000 nM.

The compound `C[C@H](NC(=O)c1nc(C#N)cnc1NCc1ccc(-c2cnc(N)c(O[C@@H]3CCNC3)n2)cc1)c1ccc(F)c(F)c1` [Example 161, 3-{4-[5-Amino-6-((R)-pyrrolidin-3-yloxy)-pyrazin-2-yl]-benzylamino}-6-cyano-pyrazine-2-carboxylic acid [(S)-1-(3,4-difluoro-phenyl)-ethyl]-amide] gave an IC50 against PDK1 (inhibition of PDK1 in vitro) of under 100 nM. The EC50 in assay [1] (setting [2]) is under 1000 nM.

Compound `CC(C)Oc1cc(CNc2ncccc2C(=O)NCc2ccc(F)c(F)c2)cc(-c2c[nH]c3ncc(C(=O)NC4CC4)cc23)c1` [Example 4.1.3, N-cyclopropyl-3-{3-[({3-[(3,4-difluoro-benzyl)carbamoyl]pyridin-2-yl}amino)methyl]-5-(propan-2-yloxy)phenyl}-1H-pyrrolo[2,3-b] pyridine-5-carboxamide] returned an IC50 on PDK1 (setting [3]) of under 100 nM. Also, the EC50 in assay [1] (setting [4]) is under 1000 nM.

As for `Nc1ncnc2c1c(-c1ccc(CNc3ncc(C(F)(F)F)cc3C(=O)Nc3ccc(F)cc3)cc1)cn2CCCO` [Example 322, 2-(4-(4-amino-7-(3-hydroxypropyl)-7H-pyrrolo [2,3-d]pyrimidin-5-yl)benzylamino)-N-(4-fluorophenyl)-5-(trifluoromethyl)nicotinamide], on PDK1 (inhibition of PDK1 in vitro), the IC50 was under 100 nM. The EC50 in assay [1] (setting [2]) is under 1000 nM.

With `Nc1n[nH]c2ncc(-c3ccc(CNc4ncc(C(F)(F)F)cc4C(=O)NCCC4CC4)cc3)cc12` [Example 269, 2-(4-(3-amino-1H-pyrazolo [3,4-b]pyridin-5-yl)benzylamino)-N-(2-cyclopropylethyl)-5-(trifluoromethyl) nicotinamide], the IC50 against PDK1 (inhibition of PDK1 in vitro) is under 100 nM. For the same compound, the EC50 in assay [1] (setting [2]) was 1000 to 10000 nM.
